Results taken from US9642831B2, “Substituted chromanes and method of use” (AbbVie S.á.r.l., priority 2014, dated 2017).

Legend:
CYP3A4 = CYP3A4 induction in primary human hepatocytes (mRNA, RT-PCR); conditions: test compounds 10 μM, 48 hours, % of response of positive control (Rifampin 10 μM)
Method: Cryopreserved primary human hepatocytes were thawed and cultured overnight prior to treatment. […] Following the 48 hour treatment, hepatocytes were harvested for RNA isolation and reverse transcription, followed by CYP3A4 mRNA quantitation using RT-PCR (real time reverse transcript polymerase chain reaction).
Fold Induction=Fold of Treated/Fold of Vehicle Control % positive control=(Fold Induction of Treated−1)/(Fold Induction of Prototypical Inducer−1)

F508delCFTR [1] = target: T1, F508delCFTR (Homo sapiens, UniProt P13569, DEL508-508); assay: Cell Surface Expression-Horse Radish Peroxidase (CSE-HRP) assay; assay type: cell-based; design: expressed in transfected cells; host or cells: CFBE41o- human lung derived epithelial cell line, doxycycline-inducible; conditions: CFBE4lo-F508delCFTR-HRP cells; for EC50: 18-24 hours at 33° C., 8-point curve, highest concentration 20 μM, luminescence readout; for Emax: maximum % activity at any tested concentration, normalized to on-plate positive control (3 μM Example 1)
T1 sequence (P13569 with tags, fused parts or gaps DEL508-508): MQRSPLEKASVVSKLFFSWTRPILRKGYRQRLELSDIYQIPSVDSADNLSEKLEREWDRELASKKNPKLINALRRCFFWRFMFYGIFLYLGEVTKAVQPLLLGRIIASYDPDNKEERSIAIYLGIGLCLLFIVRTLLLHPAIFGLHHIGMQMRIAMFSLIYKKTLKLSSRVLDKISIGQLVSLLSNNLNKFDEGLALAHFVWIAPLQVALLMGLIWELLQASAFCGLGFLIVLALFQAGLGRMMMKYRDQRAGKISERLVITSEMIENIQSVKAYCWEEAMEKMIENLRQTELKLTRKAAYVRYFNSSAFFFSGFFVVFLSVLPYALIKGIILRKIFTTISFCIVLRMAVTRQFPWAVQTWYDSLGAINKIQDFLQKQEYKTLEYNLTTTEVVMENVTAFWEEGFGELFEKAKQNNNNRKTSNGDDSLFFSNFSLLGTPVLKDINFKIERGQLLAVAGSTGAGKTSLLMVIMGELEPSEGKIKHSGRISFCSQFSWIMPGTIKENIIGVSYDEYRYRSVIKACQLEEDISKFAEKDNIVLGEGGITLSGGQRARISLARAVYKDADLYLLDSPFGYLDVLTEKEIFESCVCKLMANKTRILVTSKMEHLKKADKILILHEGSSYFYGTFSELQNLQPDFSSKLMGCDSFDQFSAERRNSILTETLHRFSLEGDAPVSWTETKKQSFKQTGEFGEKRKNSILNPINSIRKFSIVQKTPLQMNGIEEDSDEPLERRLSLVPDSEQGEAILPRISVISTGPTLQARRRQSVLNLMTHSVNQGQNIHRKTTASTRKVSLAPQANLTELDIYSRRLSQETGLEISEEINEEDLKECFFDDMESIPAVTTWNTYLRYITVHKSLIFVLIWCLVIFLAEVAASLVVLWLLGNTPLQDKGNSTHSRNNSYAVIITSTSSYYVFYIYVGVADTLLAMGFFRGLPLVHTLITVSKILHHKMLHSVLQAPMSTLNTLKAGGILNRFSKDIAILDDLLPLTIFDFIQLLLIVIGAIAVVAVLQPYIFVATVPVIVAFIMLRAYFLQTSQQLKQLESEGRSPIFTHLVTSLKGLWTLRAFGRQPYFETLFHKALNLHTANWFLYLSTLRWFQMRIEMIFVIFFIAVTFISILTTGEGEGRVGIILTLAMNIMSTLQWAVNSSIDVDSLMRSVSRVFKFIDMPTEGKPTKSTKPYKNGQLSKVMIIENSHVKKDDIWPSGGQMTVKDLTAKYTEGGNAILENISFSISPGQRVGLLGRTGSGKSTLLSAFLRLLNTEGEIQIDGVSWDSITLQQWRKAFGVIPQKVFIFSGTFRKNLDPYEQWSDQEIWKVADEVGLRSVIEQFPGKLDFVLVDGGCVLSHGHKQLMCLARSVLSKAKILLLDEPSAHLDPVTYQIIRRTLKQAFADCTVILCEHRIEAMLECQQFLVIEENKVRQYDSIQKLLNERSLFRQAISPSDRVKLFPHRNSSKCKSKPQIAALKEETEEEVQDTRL
Procedure, shortened: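 Following 18-24 h compound exposure at 33° C. Expression was doxycycline-induced beforehand. % activity versus DMSO and a 3 μM corrector control gave maximum activity and EC50 from a variable-Hill sigmoidal fit.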

F508delCFTR [2] = target: T1, F508delCFTR; assay: Transepithelial Clamp Circuit (TECC-24) conductance assay on primary human bronchial epithelial cells (hBE-TECC); assay type: cell-based; design: cells isolated from CF patients with the homozygous mutation; endogenous in cells; host or cells: primary human bronchial epithelial (hBE) cells from F508del/F508del CF patients; conditions: for EC50: primary hBE cells from F508del/F508delCFTR patients, corrector 18-24 hours at 37° C., equivalent short circuit current (Ieq), with control potentiator 1 μM; for Emax: relative to positive control (3 μM Example 1 coupled with control potentiator = 100%), primary hBE F508del/F508del cells, read-out: Maximum % activity (%)
Source text: Transepithelial Clamp Circuit on Human Bronchial Epithelial Cells Conductance Assay:
A cell based assay using the primary human bronchial epithelial cells (hBE) was used as a secondary assay to test novel F508delCFTR correctors for their activity on primary hBE cells with F508del/F508del CFTR mutation. The assay used a TECC-24 (Transepithelial Clamp Circuit for 24 wells) instrument that measures the functionality of the mutated channel by measuring the equivalent short circuit current (Ieq) generated by the polarized epithelial cells. The instrument works by measuring the transepithelial potential difference (Vt) and transepithelial resistance (Rt) in an open circuit format, and the Ieq is calculated by using Ohms law (Ieq=Vt/Rt). The assay was run in a 24-well format and all 24-wells were measured at the same time point giving a higher throughput for this assay.
Primary human bronchial epithelial (hBE) cells from F508del/F508delCFTR patients were expanded from 1×10^6 to 250×10^6 cells (Neuberger T, Burton B, Clark H and VanGoor F; Cystic Fibrosis, Methods in Mole Biol 741; eds. Amaral M D and Kunzelmann K, 2011). For this purpose, cells isolated from CF patients with the homozygous mutation were seeded onto 24 well Corning (Cat #3378) filter plates that were coated with 3T3 conditioned media and grown at an air-liquid interface for 35 days using an Ultroser® G supplemented differentiation media. Apical surface mucus was removed 72 hours before the experiment using 3 mM dithiothreitol (DTT) in phosphate buffered saline (PBS). The apical surface was washed again 24 hours before the experiment using PBS. The cells were incubated with the desired dose response of the corrector compounds 18-24 hours at 37° C., 5% CO2. The corrector compounds are only added on the basolateral side of the epithelial cells.
On the day of measuring the corrector activity on the TECC, the cells were switched into a bicarbonate and serum free F-12 Coon's medium and allowed to equilibrate for 90 minutes in a CO2 free incubator. At the time of measurement, the apical and basolateral sides of the filter were bathed with the F-12 Coon's modification media (with 20 mM 4-(2-hydroxyethyl)-1-piperazineethanesulfonic acid (HEPES), pH 7.4 (using 1 M tris(hydroxymethyl)aminormethane (Tris)), and the measurements were made at 36.5° C. Transepithelial voltage (Vt) and transepithelial resistance (Rt) were measured using a 24 channel transepithelial current clamp (TECC-24). Current responses to the sequential addition of benzamil (apical 6 μM addition; for inhibiting epithelial ENaC channel), forskolin (apical and basolateral 10 μM addition; for activating the CFTR channel), control potentiator (N-(3-carbamoyl-5,5,7,7-tetramethyl-4,7-dihydro-5H-thieno[2,3-c]pyran-2-yl)-1H-pyrazole-5-carboxamide; apical and basolateral 1 μM addition; for potentiating the CFTR channel) and bumetanide (basolateral 20 μM addition; for inhibiting the Na:2Cl:K co-transporter, an indirect measure of inhibiting the Cl-secretion driven by CFTR channel) were measured.
All plates contained negative controls (dimethyl sulfoxide, DMSO) which coupled with the control potentiator (N-(3-carbamoyl-5,5,7,7-tetramethyl-4,7-dihydro-5H-thieno[2,3-c]pyran-2-yl)-1H-pyrazole-5-carboxamide) sets the null response and positive controls (3 μM of 3-[(2R,4R)-4-({[1-(2,2-difluoro-1,3-benzodioxol-5-yl)cyclopropyl]carbonyl}amino)-7-methoxy-3,4-dihydro-2H-chromen-2-yl]benzoic acid) coupled with the control potentiator sets the 100% response to measure the correction of the mutated CFTR channel. The maximum percent activity is reported relative to the positive control value.
The % activity measured at each of the 6 test concentrations of the test compound was normalized to the on-plate positive control using the following formula: % activity=[(test compound response−DMSO response)/(positive control response−DMSO response)]*100 […]

Row | Structure (SMILES) | CYP3A4 Hepatocytes mRNA % of positive control (CYP3A4) [%] | EC50 (F508delCFTR [1]) [nM] | Emax (F508delCFTR [1]) [%] | EC50 (F508delCFTR [2]) [nM] | Emax (F508delCFTR [2]) [%]
1 | O=C(O)c1cccc([C@H]2C[C@@H](NC(=O)C3(c4ccc5c(c4)OC(F)(F)O5)CC3)c3ccccc3O2)c1 [Example 9, 3-[(2R,4R)-4-({[1-(2,2-difluoro-1,3-benzodioxol-5-yl)cyclopropyl]carbonyl}amino)-3,4-dihydro-2H-chromen-2-yl]benzoic acid] | 16.1 | 420 | 84 | 160 | 92
2 | COc1ccc2c(c1)[C@H](NC(=O)C1(c3ccc4c(c3)OC(F)(F)O4)CC1)C[C@H](c1cccc(C(=O)O)c1)O2 [Example 19, 3-[(2R,4R)-4-({[1-(2,2-difluoro-1,3-benzodioxol-5-yl)cyclopropyl]carbonyl}amino)-6-methoxy-3,4-dihydro-2H-chromen-2-yl]benzoic acid] | 9.38 | 630 | 103 | 210 | 111
3 | COc1ccc2c(c1)O[C@@H](c1ccc(C(=O)O)cc1)C[C@H]2NC(=O)C1(c2ccc3c(c2)OC(F)(F)O3)CC1 [Example 111, 4-[(2R,4R)-4-({[1-(2,2-difluoro-1,3-benzodioxol-5-yl)cyclopropyl]carbonyl}amino)-7-methoxy-3,4-dihydro-2H-chromen-2-yl]benzoic acid] | −0.105 | 44 | 113 | 5 | 90
4 | O=C(O)c1ccc([C@H]2C[C@@H](NC(=O)C3(c4ccc5c(c4)OC(F)(F)O5)CC3)c3ccc(OC(F)F)cc3O2)cc1 [Example 122, 4-[(2R,4R)-4-({[1-(2,2-difluoro-1,3-benzodioxol-5-yl)cyclopropyl]carbonyl}amino)-7-(difluoromethoxy)-3,4-dihydro-2H-chromen-2-yl]benzoic acid] | 10.6 | 26 | 122 | 4 | 87
5 | COc1ccc2c(c1)O[C@@H](c1ccc(C(=O)O)cc1F)C[C@H]2NC(=O)C1(c2ccc3c(c2)OC(F)(F)O3)CC1 [Example 146, 4-[(2R,4R)-4-({[1-(2,2-difluoro-1,3-benzodioxol-5-yl)cyclopropyl]carbonyl}amino)-7-methoxy-3,4-dihydro-2H-chromen-2-yl]-3-fluorobenzoic acid] | 11.6 | 30 | 129 | 4 | 98

The remaining molecules from weak to strong by EC50 (F508delCFTR [1]), led by results:

Row | CYP3A4 Hepatocytes mRNA % of positive control (CYP3A4) [%] | EC50 (F508delCFTR [1]) [nM] | Emax (F508delCFTR [1]) [%] | EC50 (F508delCFTR [2]) [nM] | Emax (F508delCFTR [2]) [%] | Structure (SMILES)
6 | 9.41 | 3240 | 98 | 3400 | 51 | COc1ccc2c(n1)O[C@@H](c1cccc(C(=O)O)c1)C[C@H]2NC(=O)C1(c2ccc3c(c2)OC(F)(F)O3)CC1 (racemic) [Example 28, rac-3-[(2R,4R)-4-({[1-(2,2-difluoro-1,3-benzodioxol-5-yl)cyclopropyl]carbonyl}amino)-7-methoxy-3,4-dihydro-2H-pyrano[2,3-b]pyridin-2-yl]benzoic acid]
7 | 42.2 | 450 | 94 | 55 | 70 | O=C(O)C1CCCC([C@H]2C[C@@H](NC(=O)C3(c4ccc5c(c4)OC(F)(F)O5)CC3)c3ccc(C(F)(F)F)cc3O2)C1 (stereo partly drawn) [Example 109, 3-[(2R,4R)-4-({[1-(2,2-difluoro-1,3-benzodioxol-5-yl)cyclopropyl]carbonyl}amino)-7-(trifluoromethyl)-3,4-dihydro-2H-chromen-2-yl]cyclohexanecarboxylic acid]
8 | 39.6 | 340 | 115 | 86 | 96 | O=C(O)c1cccc([C@H]2C[C@@H](NC(=O)C3(c4ccc5c(c4)OC(F)(F)O5)CC3)c3ccc(C(F)(F)F)cc3O2)c1 [Example 108, 3-[(2R,4R)-4-({[1-(2,2-difluoro-1,3-benzodioxol-5-yl)cyclopropyl]carbonyl}amino)-7-(trifluoromethyl)-3,4-dihydro-2H-chromen-2-yl]benzoic acid]
9 | 14 | 280 | 102 | 290 | 95 | COc1ccc2c(c1)O[C@@H](c1cccc(C(=O)O)c1)C[C@H]2NC(=O)C1(c2ccc3c(c2)OC(F)(F)O3)CC1 [Example 1, 3-[(2R,4R)-4-({[1-(2,2-difluoro-1,3-benzodioxol-5-yl)cyclopropyl]carbonyl}amino)-7-methoxy-3,4-dihydro-2H-chromen-2-yl]benzoic acid]
